In article PMC5433425 (PeerJ, 2017):
Read-outs that look alike come from different tables or passages of the source.

Key:
[1] = tested on: E. coli AG100tet (AcrAB overexpressing); assay: MIC, broth microdilution; format: cell-based, Escherichia coli; settings: E. coli AG100tet
E. coli AG100A [2] = assay: microbe, parasite or virus in culture; format: cell-based, Escherichia coli
E. coli AG100tet = assay: microbe, parasite or virus in culture; format: cell-based, Escherichia coli; settings: AG100tet
Method: The assays were performed in triplicate and the MIC value was given as result of at least two concordant values.

E. coli AG100A [3] = settings: EtBr […] + inhibitor 20 µM
E. coli AG100 = assay: EtBr efflux by real-time fluorometry; settings: for EtBr fluorescence (Channel Cycling A.530/585hp): 80 µM, + glucose
Method: Control tubes with only cells and cells with and without 0.4% glucose were included. The fluorescence was measured in a Rotor-Gene 3000 and the data was acquired every 30 s for 30 min at 37 °C. The efflux activity was quantified by comparing the fluorescence data obtained under conditions that promote efflux (presence of glucose and absence of efflux inhibitor) with the data from the control in which the bacteria are under conditions of no efflux (presence of an inhibitor and no energy source).

CCCOc1ccc(-c2cc(OCCN3CCNCC3)c3ccccc3n2)cc1 [PQQ4R, 4-(2-(piperazin-1-yl)ethoxy)-2-(4-propoxyphenyl) quinolone]
MIC [1]: >653.9 µM
MIC of EtBr in presence of the efflux inhibitor (E. coli AG100A [2]; AG100A, inhibitor 40 μM): 0.39 µg/mL
MIC of OFX in presence of the efflux inhibitor (E. coli AG100A [2]; AG100A, inhibitor 40 μM): 0.03 µg/mL
MIC of OXA in presence of the efflux inhibitor (E. coli AG100A [2]; AG100A, inhibitor 40 μM): 1 µg/mL
MIC of TET in presence of the efflux inhibitor (E. coli AG100A [2]; AG100A, inhibitor 40 μM): 0.25 µg/mL
effect on the MIC of the antibiotics (E. coli AG100A [2]; AG100A, inhibitor 40 μM): no effect
reduction in EtBr MIC (E. coli AG100A [2]; AG100A, inhibitor 40 μM): ≈ 8 fold
growth of AG100A in presence of the inhibitor (E. coli AG100A [2]; concentrations above 40 µM): did not grow
MIC of EtBr in presence of the efflux inhibitor (E. coli AG100tet; inhibitor 40 μM): 512 µg/mL
MIC of OFX in presence of the efflux inhibitor (E. coli AG100tet; inhibitor 40 μM): 0.5 µg/mL
MIC of OXA in presence of the efflux inhibitor (E. coli AG100tet; inhibitor 40 μM): >2,048 μg/ml
MIC of TET in presence of the efflux inhibitor (E. coli AG100tet; inhibitor 40 μM): 16 µg/mL
MIC of EtBr in presence of the efflux inhibitor (E. coli AG100tet; inhibitor 80 μM): 512 µg/mL
MIC of OFX in presence of the efflux inhibitor (E. coli AG100tet; inhibitor 80 μM): 0.25 µg/mL
MIC of OXA in presence of the efflux inhibitor (E. coli AG100tet; inhibitor 80 μM): 2,048 μg/ml
MIC of TET in presence of the efflux inhibitor (E. coli AG100tet; inhibitor 80 μM): 16 µg/mL
MIC of EtBr in presence of the efflux inhibitor (E. coli AG100tet; inhibitor 160 μM): 512 µg/mL
MIC of OFX in presence of the efflux inhibitor (E. coli AG100tet; inhibitor 160 μM): 0.25 µg/mL
MIC of OXA in presence of the efflux inhibitor (E. coli AG100tet; inhibitor 160 μM): 2,048 μg/ml
MIC of TET in presence of the efflux inhibitor (E. coli AG100tet; inhibitor 160 μM): 16 µg/mL
decrease in OFX MIC (E. coli AG100tet; inhibitor 80 and 160 µM): 4 fold
decrease in TET MIC (E. coli AG100tet; inhibitor 80 and 160 µM): 4 fold
EtBr fluorescence (E. coli AG100A [3]; cycle 1): 3.005
EtBr fluorescence (E. coli AG100A [3]; cycle 2): 3.689
EtBr fluorescence (E. coli AG100A [3]; cycle 3): 4.425
EtBr fluorescence (E. coli AG100A [3]; cycle 4): 5.09
EtBr fluorescence (E. coli AG100A [3]; cycle 5): 5.663
EtBr fluorescence (E. coli AG100A [3]; cycle 6): 6.261
EtBr fluorescence (E. coli AG100A [3]; cycle 7): 6.784
EtBr fluorescence (E. coli AG100A [3]; cycle 8): 7.347
EtBr fluorescence (E. coli AG100A [3]; cycle 9): 7.957
EtBr fluorescence (E. coli AG100A [3]; cycle 10): 8.552
EtBr fluorescence (E. coli AG100A [3]; cycle 11): 9.107
EtBr fluorescence (E. coli AG100A [3]; cycle 12): 9.505
EtBr fluorescence (E. coli AG100A [3]; cycle 13): 10.1469
EtBr fluorescence (E. coli AG100A [3]; cycle 14): 10.666
EtBr fluorescence (E. coli AG100A [3]; cycle 15): 11.2994
EtBr fluorescence (E. coli AG100A [3]; cycle 16): 11.7134
EtBr fluorescence (E. coli AG100A [3]; cycle 17): 12.3988
EtBr fluorescence (E. coli AG100A [3]; cycle 18): 12.7522
EtBr fluorescence (E. coli AG100A [3]; cycle 19): 13.174
EtBr fluorescence (E. coli AG100A [3]; cycle 20): 13.8181
EtBr fluorescence (E. coli AG100A [3]; cycle 21): 14.2909
EtBr fluorescence (E. coli AG100A [3]; cycle 22): 14.7163
EtBr fluorescence (E. coli AG100A [3]; cycle 23): 15.2505
EtBr fluorescence (E. coli AG100A [3]; cycle 24): 16.0503
EtBr fluorescence (E. coli AG100A [3]; cycle 25): 16.1642
EtBr fluorescence (E. coli AG100A [3]; cycle 26): 16.8061
EtBr fluorescence (E. coli AG100A [3]; cycle 27): 17.3806
EtBr fluorescence (E. coli AG100A [3]; cycle 28): 17.8352
EtBr fluorescence (E. coli AG100A [3]; cycle 29): 18.1109
EtBr fluorescence (E. coli AG100A [3]; cycle 30): 18.6334
inhibition of EtBr efflux (E. coli AG100; AG100, AG100A and AG100tet (Fig. 2), 80 μM (20 μM for AG100A), glucose, 37 °C): inhibited
EtBr fluorescence (Channel Cycling A.530/585hp) (E. coli AG100; cycle 1): 14.1835
EtBr fluorescence (Channel Cycling A.530/585hp) (E. coli AG100; cycle 2): 12.9442
EtBr fluorescence (Channel Cycling A.530/585hp) (E. coli AG100; cycle 3): 12.1458
EtBr fluorescence (Channel Cycling A.530/585hp) (E. coli AG100; cycle 9): 9.004
EtBr fluorescence (Channel Cycling A.530/585hp) (E. coli AG100; cycle 10): 8.5432
EtBr fluorescence (Channel Cycling A.530/585hp) (E. coli AG100; cycle 11): 8.357
EtBr fluorescence (Channel Cycling A.530/585hp) (E. coli AG100; cycle 12): 8.087
EtBr fluorescence (Channel Cycling A.530/585hp) (E. coli AG100; cycle 13): 7.737
EtBr fluorescence (Channel Cycling A.530/585hp) (E. coli AG100; cycle 14): 7.571
EtBr fluorescence (Channel Cycling A.530/585hp) (E. coli AG100; cycle 15): 7.486
EtBr fluorescence (Channel Cycling A.530/585hp) (E. coli AG100; cycle 16): 7.363
EtBr fluorescence (Channel Cycling A.530/585hp) (E. coli AG100; cycle 17): 7.106
EtBr fluorescence (Channel Cycling A.530/585hp) (E. coli AG100; cycle 18): 6.949
EtBr fluorescence (Channel Cycling A.530/585hp) (E. coli AG100; cycle 19): 6.811
EtBr fluorescence (Channel Cycling A.530/585hp) (E. coli AG100; cycle 20): 6.647
EtBr fluorescence (Channel Cycling A.530/585hp) (E. coli AG100; cycle 21): 6.6451
EtBr fluorescence (Channel Cycling A.530/585hp) (E. coli AG100; cycle 22): 6.375
